# In the kinase profiling compilation of Christmann-Franck et al. (2016):
# Key:
# Experiment in all cases: radiometric filter-binding kinase assay, Kinase HotSpot
# Settings in all cases: compound 0.5 µM; ATP 10 µM
# [1] = target: ADRBK1 (human) (UniProt P25098)
# [2] = target: AKT2 (human) (UniProt P31751)
# [3] = target: AURKC (human) (UniProt Q9UQB9)
# [4] = target: CAMK2G (human) (UniProt Q13555)
# [5] = target: CAMK4 (human) (UniProt Q16566)
# [6] = target: CDK1 CCNA2 (human) (UniProt P06493+P20248)
# [7] = target: CDK1 CCNB1 (human) (UniProt P06493+P14635)
# [8] = target: CDK3 CCNE1 (human) (UniProt Q00526+P24864)
# [9] = target: CDK4 CCND3 (human) (UniProt P30281+P11802)
# [10] = target: CHEK1 (human) (UniProt O14757)
# [11] = target: CSK (human) (UniProt P41240)
# Chain of CSK (human) (P41240 whole entry, looked up): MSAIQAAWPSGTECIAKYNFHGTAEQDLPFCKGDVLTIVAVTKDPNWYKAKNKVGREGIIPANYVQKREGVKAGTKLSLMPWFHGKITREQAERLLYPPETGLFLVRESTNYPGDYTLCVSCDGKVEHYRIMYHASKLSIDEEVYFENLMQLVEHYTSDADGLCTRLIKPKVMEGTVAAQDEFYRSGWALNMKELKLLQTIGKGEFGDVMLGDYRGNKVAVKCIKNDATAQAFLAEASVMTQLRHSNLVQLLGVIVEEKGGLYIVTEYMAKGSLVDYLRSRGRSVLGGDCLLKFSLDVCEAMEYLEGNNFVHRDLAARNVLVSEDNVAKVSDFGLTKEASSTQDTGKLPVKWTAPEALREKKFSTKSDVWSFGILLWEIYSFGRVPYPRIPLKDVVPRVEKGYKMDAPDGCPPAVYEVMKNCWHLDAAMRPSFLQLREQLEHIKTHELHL
# [12] = target: FGR (human) (UniProt P09769)
# [13] = target: FRK (human) (UniProt P42685)
# Chain of FRK (human) (P42685 whole entry, looked up): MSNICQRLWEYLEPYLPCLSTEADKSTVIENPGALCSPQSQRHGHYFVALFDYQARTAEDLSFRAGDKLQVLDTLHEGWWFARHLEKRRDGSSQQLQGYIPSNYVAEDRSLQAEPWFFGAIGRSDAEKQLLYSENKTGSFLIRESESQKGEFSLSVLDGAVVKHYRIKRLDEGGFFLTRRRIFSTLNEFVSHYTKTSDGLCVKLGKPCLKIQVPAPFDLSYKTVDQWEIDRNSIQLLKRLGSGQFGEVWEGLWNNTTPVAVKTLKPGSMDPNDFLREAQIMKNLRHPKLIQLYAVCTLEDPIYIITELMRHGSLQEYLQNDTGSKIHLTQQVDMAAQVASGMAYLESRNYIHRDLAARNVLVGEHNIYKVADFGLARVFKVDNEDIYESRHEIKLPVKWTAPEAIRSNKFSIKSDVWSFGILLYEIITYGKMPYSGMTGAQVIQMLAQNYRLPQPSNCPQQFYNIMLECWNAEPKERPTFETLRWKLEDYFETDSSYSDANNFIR
# [14] = target: GSK3A (human) (UniProt P49840)
# [15] = target: HCK (human) (UniProt P08631)
# [16] = target: HIPK3 (human) (UniProt Q9H422)
# [17] = target: INSRR (human) (UniProt P14616)
# [18] = target: IRAK4 (human) (UniProt Q9NWZ3)
# Chain of IRAK4 (human) (Q9NWZ3 whole entry, looked up): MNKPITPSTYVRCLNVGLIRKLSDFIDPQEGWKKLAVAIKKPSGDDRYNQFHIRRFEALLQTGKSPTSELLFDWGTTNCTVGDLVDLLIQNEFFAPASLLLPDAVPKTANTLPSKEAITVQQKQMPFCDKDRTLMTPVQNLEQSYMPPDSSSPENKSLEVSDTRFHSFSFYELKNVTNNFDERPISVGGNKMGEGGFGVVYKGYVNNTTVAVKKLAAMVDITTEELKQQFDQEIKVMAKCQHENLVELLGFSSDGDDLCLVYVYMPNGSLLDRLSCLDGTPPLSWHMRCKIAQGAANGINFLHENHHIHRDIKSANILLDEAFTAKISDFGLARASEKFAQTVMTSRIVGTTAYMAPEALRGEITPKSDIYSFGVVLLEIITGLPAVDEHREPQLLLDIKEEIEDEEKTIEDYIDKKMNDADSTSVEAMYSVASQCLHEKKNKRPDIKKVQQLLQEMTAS
# [19] = target: JAK1 JH1 catalytic (human) (UniProt P23458)
# [20] = target: MAP2K2 (human) (UniProt P36507)
# [21] = target: MAP3K11 (human) (UniProt Q16584)
# Chain of MAP3K11 (human) (Q16584 whole entry, looked up): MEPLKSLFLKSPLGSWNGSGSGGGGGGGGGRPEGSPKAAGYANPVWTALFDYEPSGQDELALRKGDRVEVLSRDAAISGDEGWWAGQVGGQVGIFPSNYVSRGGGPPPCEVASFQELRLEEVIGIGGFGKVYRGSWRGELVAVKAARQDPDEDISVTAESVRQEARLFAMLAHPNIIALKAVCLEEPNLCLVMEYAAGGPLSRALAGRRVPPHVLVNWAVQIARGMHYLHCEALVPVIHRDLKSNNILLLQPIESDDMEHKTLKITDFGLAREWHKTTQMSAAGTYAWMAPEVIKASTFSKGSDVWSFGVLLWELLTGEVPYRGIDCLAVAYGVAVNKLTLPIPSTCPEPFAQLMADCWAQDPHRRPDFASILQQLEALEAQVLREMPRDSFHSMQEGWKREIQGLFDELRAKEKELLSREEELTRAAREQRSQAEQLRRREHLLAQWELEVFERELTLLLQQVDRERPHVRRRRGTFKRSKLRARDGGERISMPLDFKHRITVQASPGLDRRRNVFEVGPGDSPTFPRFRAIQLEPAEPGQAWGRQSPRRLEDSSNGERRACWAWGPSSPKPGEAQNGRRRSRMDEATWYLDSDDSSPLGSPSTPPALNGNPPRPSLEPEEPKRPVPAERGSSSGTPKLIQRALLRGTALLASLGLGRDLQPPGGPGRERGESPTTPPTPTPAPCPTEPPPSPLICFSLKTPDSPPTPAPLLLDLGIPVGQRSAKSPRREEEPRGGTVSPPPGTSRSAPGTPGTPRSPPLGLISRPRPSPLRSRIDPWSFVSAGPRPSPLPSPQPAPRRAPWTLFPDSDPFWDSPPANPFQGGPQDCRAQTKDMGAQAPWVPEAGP
# [22] = target: MAP3K2 (human) (UniProt Q9Y2U5)
# [23] = target: MAP3K3 (human) (UniProt Q99759)
# Chain of MAP3K3 (human) (Q99759 whole entry, looked up): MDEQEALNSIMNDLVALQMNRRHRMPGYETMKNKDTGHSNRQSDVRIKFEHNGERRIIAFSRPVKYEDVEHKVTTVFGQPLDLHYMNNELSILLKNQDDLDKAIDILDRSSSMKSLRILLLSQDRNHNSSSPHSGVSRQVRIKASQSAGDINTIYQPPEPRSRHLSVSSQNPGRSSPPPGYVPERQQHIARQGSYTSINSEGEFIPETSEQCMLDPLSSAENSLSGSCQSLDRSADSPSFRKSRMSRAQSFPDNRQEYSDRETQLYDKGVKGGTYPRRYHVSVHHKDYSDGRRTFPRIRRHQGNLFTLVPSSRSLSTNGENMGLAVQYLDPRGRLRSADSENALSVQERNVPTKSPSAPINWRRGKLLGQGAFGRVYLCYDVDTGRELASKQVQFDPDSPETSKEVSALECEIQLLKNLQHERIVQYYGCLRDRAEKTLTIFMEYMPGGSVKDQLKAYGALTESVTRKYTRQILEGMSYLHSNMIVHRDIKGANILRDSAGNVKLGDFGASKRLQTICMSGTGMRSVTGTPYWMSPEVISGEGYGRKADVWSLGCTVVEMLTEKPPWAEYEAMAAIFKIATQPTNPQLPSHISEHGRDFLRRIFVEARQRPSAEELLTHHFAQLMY
# [24] = target: MAP3K9 (human) (UniProt P80192)
# [25] = target: MAP4K2 (human) (UniProt Q12851)
# [26] = target: MAPK12 (human) (UniProt P53778)
# [27] = target: NEK1 (human) (UniProt Q96PY6)
# [28] = target: NEK9 (human) (UniProt Q8TD19)
# Chain of NEK9 (human) (Q8TD19 whole entry, looked up): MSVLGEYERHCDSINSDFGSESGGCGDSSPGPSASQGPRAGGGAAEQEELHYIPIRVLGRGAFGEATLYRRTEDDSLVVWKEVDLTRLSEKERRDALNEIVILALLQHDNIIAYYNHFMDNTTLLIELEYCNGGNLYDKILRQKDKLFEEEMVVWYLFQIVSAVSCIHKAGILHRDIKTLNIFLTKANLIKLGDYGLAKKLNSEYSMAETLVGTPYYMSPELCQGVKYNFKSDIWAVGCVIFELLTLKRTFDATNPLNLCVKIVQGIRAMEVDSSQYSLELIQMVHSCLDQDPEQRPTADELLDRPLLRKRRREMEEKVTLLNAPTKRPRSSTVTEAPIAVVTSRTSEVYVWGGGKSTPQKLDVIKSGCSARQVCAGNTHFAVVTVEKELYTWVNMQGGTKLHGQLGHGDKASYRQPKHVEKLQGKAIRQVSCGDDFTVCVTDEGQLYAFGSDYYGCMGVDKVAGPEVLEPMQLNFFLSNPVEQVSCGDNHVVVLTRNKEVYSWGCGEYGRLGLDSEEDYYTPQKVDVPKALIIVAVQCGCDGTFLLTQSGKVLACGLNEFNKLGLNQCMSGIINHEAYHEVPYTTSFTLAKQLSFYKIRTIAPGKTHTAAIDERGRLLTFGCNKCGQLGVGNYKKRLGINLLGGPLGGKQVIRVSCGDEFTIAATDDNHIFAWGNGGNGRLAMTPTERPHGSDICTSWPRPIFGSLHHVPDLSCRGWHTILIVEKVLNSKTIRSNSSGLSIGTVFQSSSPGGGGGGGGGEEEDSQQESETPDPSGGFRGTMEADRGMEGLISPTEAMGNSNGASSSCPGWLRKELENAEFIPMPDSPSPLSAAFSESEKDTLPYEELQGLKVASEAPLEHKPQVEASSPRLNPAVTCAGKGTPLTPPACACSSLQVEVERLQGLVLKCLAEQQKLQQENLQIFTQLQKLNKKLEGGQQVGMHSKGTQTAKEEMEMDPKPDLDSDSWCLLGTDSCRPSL
# [29] = target: NTRK3 (human) (UniProt Q16288)
# [30] = target: PAK7 (human) (UniProt Q9P286)
# [31] = target: PDGFRA (human) (UniProt P16234)
# [32] = target: PIM2 (human) (UniProt Q9P1W9)
# [33] = target: PIM3 (human) (UniProt Q86V86)
# [34] = target: PRKX (human) (UniProt P51817)
# [35] = target: SLK (human) (UniProt Q9H2G2)
# [36] = target: SRC (human) (UniProt P12931)
# [37] = target: STK24 (human) (UniProt Q9Y6E0)
# [38] = target: STK33 (human) (UniProt Q9BYT3)
# [39] = target: TEK (human) (UniProt Q02763)
# [40] = target: TGFBR1 (human) (UniProt P36897)
# [41] = target: TNK2 (human) (UniProt Q07912)
# [42] = target: WNK2 (human) (UniProt Q9Y3S1)
# Chain of ADRBK1 (human) (P25098 whole entry, looked up): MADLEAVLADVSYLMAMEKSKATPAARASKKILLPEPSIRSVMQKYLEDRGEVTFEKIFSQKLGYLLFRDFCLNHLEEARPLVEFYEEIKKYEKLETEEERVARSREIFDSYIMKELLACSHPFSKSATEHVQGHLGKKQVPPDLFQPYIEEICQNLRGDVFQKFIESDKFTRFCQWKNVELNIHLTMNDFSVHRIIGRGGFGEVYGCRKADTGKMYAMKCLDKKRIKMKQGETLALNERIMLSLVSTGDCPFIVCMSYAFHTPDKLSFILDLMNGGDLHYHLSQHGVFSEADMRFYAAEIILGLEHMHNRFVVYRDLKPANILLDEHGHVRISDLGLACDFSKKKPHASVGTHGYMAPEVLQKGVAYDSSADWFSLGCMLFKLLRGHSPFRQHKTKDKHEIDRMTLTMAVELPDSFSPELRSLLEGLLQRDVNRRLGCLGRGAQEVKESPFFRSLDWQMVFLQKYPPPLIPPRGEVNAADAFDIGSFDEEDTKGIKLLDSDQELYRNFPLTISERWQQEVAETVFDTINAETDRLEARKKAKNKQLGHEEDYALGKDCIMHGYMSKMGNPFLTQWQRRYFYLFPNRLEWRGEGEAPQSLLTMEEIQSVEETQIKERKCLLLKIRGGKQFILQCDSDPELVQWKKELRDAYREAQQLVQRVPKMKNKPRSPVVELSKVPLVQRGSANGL
smiles,measurement,setting,value
CCN(CC)CCNC(=O)c1c(C)[nH]c(/C=C2\C(=O)Nc3ccc(Cl)cc32)c1C,residual activity,[1],104%
same,residual activity,[2],86.9%
same,residual activity,[3],74.7%
same,residual activity,[4],8.13%
same,residual activity,[5],95%
same,residual activity,[6],87.5%
same,residual activity,[7],109%
same,residual activity,[8],88.3%
same,residual activity,[9],86.3%
same,residual activity,[10],15.1%
same,residual activity,[11],86.3%
same,residual activity,[12],11.5%
same,residual activity,[13],59.3%
same,residual activity,[14],88.3%
same,residual activity,[15],34.3%
same,residual activity,[16],50.8%
same,residual activity,[17],4.33%
same,residual activity,[18],22.7%
same,residual activity,[19],65.8%
same,residual activity,[20],41.4%
same,residual activity,[21],21%
same,residual activity,[22],20.1%
same,residual activity,[23],30.6%
same,residual activity,[24],49.6%
same,residual activity,[25],8.07%
same,residual activity,[26],96.6%
same,residual activity,[27],94.7%
same,residual activity,[28],95.9%
same,residual activity,[29],1.87%
same,residual activity,[30],58.9%
same,residual activity,[31],25.9%
same,residual activity,[32],101%
same,residual activity,[33],74%
same,residual activity,[34],83.9%
same,residual activity,[35],38%
same,residual activity,[36],26%
same,residual activity,[37],22.2%
same,residual activity,[38],20.6%
same,residual activity,[39],98.2%
same,residual activity,[40],95.5%
same,residual activity,[41],22.6%
same,residual activity,[42],101%
O=C1NC(=O)C(c2cn(CCCn3ccnc3)c3ccccc23)=C1Nc1ccccc1,residual activity,[1],97.1%
same,residual activity,[2],92.3%
same,residual activity,[3],89.8%
same,residual activity,[4],90.9%
same,residual activity,[5],103%
same,residual activity,[6],88.9%
same,residual activity,[7],84.9%
same,residual activity,[8],90.9%
same,residual activity,[9],91%
same,residual activity,[10],76.6%
same,residual activity,[11],110%
same,residual activity,[12],86.3%
same,residual activity,[13],107%
same,residual activity,[14],10.6%
same,residual activity,[15],97.9%
same,residual activity,[16],102%
same,residual activity,[17],101%
same,residual activity,[18],89.5%
same,residual activity,[19],82.1%
same,residual activity,[20],102%
same,residual activity,[21],13.3%
same,residual activity,[22],83.3%
same,residual activity,[23],95.8%
same,residual activity,[24],30.6%
same,residual activity,[25],85.7%
same,residual activity,[26],102%
same,residual activity,[27],114%
same,residual activity,[28],89.1%
same,residual activity,[29],40%
same,residual activity,[30],94.2%
same,residual activity,[31],94.1%
same,residual activity,[32],102%
same,residual activity,[33],97.5%
same,residual activity,[34],95.5%
same,residual activity,[35],39.1%
same,residual activity,[36],100%
same,residual activity,[37],51.7%
same,residual activity,[38],82.9%
same,residual activity,[39],92.3%
same,residual activity,[40],101%
same,residual activity,[41],65.9%
same,residual activity,[42],99.8%
O=c1cc(N2CCOCC2)oc2c1ccc1ccccc12,residual activity,[1],98.9%
same,residual activity,[2],98.9%
same,residual activity,[3],107%
same,residual activity,[4],95.5%
same,residual activity,[5],94%
same,residual activity,[6],103%
same,residual activity,[7],85.5%
same,residual activity,[8],102%
same,residual activity,[9],96.8%
same,residual activity,[10],104%
same,residual activity,[11],101%
same,residual activity,[12],94.6%
same,residual activity,[13],98.8%
same,residual activity,[14],97.1%
same,residual activity,[15],114%
same,residual activity,[16],107%
same,residual activity,[17],97.4%
same,residual activity,[18],122%
same,residual activity,[19],104%
same,residual activity,[20],100%
same,residual activity,[21],99.2%
same,residual activity,[22],109%
same,residual activity,[23],102%
same,residual activity,[24],111%
same,residual activity,[25],118%
same,residual activity,[26],97.4%
same,residual activity,[27],106%
same,residual activity,[28],102%
same,residual activity,[29],103%
same,residual activity,[30],108%
same,residual activity,[31],83.9%
same,residual activity,[32],78.8%
same,residual activity,[33],95.4%
same,residual activity,[34],96.6%
same,residual activity,[35],102%
same,residual activity,[36],99.3%
same,residual activity,[37],103%
same,residual activity,[38],97.5%
same,residual activity,[39],94.4%
same,residual activity,[40],98.5%
same,residual activity,[41],100%
same,residual activity,[42],103%
O=C1NC(=O)/C(=C/c2ccc3c(c2)OC(F)(F)O3)S1,residual activity,[1],103%
same,residual activity,[2],96.2%
same,residual activity,[3],98.1%
same,residual activity,[4],102%
same,residual activity,[5],101%
same,residual activity,[6],97.2%
same,residual activity,[7],99.6%
same,residual activity,[8],99.4%
same,residual activity,[9],98.2%
same,residual activity,[10],101%
same,residual activity,[11],88%
same,residual activity,[12],95.8%
same,residual activity,[13],93.4%
same,residual activity,[14],88.1%
same,residual activity,[15],89.8%
same,residual activity,[16],90.1%
same,residual activity,[17],110%
same,residual activity,[18],99.2%
same,residual activity,[19],104%
same,residual activity,[20],110%
same,residual activity,[21],97.8%
same,residual activity,[22],94%
same,residual activity,[23],103%
same,residual activity,[24],101%
same,residual activity,[25],90.7%
same,residual activity,[26],92.8%
same,residual activity,[27],79.6%
same,residual activity,[28],109%
same,residual activity,[29],98%
same,residual activity,[30],93%
same,residual activity,[31],103%
same,residual activity,[32],91.9%
same,residual activity,[33],39.8%
same,residual activity,[34],101%
same,residual activity,[35],98.3%
same,residual activity,[36],98.4%
same,residual activity,[37],91.9%
same,residual activity,[38],90.8%
same,residual activity,[39],91.9%
same,residual activity,[40],102%
same,residual activity,[41],93.3%
same,residual activity,[42],113%
